pIC50: −log10 of the molar value. Counter-ions that a name gives are not always drawn.
Target: T1, human HPK1 (MAP4K1) (Homo sapiens, UniProt Q92918)
T1 construct: Recombinant human HPK1 kinase domain was obtained from ThermoFisher (Cat. #PV6357) and SignalChem (Cat. #M23-11G); purchased ThermoFisher; SignalChem PV6357; M23-11G
T1 sequence (Q92918 17-274 limits assumed): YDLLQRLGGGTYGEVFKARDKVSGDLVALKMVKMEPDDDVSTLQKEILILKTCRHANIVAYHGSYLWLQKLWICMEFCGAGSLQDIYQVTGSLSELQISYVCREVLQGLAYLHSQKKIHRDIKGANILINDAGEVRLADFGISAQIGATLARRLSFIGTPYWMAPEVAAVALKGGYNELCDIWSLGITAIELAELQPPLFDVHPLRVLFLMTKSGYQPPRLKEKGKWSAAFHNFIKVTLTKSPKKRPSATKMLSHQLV
Test: Biochemical assay for activity against HPK1 (ADP-Glo, MBP substrate)
Conditions: recombinant human HPK1 kinase domain, 1 nM enzyme, ADP-Glo luminescence
Method in brief: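 Recombinant human HPK1 kinase domain (1 nM solution) preincubated 15 min at room temperature with compounds in pH 7.5 HEPES buffer with NaCl, TCEP, MgCl2, Tween-20, BSA. MBP substrate with ATP added, reaction run 2 h at room temperature. ADP formation read by ADP-Glo luminescence to give IC50.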

## CNC(=O)[C@H]1CC[C@@H](n2nc(C)c3cnc(Nc4cc5c(cc4OC)CCN(C)C5)nc32)CC1 [Example 52, (cis)-4-(6-((6-methoxy-2-methyl-1,2,3,4-tetrahydroisoquinolin-7-yl)amino)-3-methyl-1H-pyrazolo[3,4-d]pyrimidin-1-yl)-N-methylcyclohexane-1-carboxamide]
  pIC50: > 7.00

## COc1cc2c(cc1Nc1ncc3cnn([C@H]4CC[C@H](CO)C4)c3n1)CN(C)CC2 (racemic) [Example 48, rac-(trans-3-(6-((6-methoxy-2-methyl-1,2,3,4-tetrahydroisoquinolin-7-yl)amino)-1H-pyrazolo[3,4-d]pyrimidin-1-yl)cyclopentyl)methanol]
  pIC50: > 7.00

## COc1cc2c(cc1Nc1ncc3cnn(C[C@@H]4C[C@H](C)CN4C(C)=O)c3n1)CN(C)CC2 [Example 136, 1-((2S,4S)-2-((6-((6-methoxy-2-methyl-1,2,3,4-tetrahydroisoquinolin-7-yl)amino)-1H-pyrazolo[3,4-d]pyrimidin-1-yl)methyl)-4-methylpyrrolidin-1-yl)ethan-1-one]
  pIC50: 6.60 to 7.00

## COc1cc2c(cc1Nc1ncc3cnn(C4CCC(F)(F)CC4)c3n1)CN(C)CC2 [Example 192, N-[1-(4,4-difluorocyclohexyl)pyrazolo[3,4-d]pyrimidin-6-yl]-6-methoxy-2-methyl-3,4-dihydro-1H-isoquinolin-7-amine Hydrochloride]
  pIC50: > 7.00

## COc1cc2c(cc1Nc1ncc3cnn([C@H]4CCC[C@@H](O)C4)c3n1)CN(C)CC2 (relative stereo) [Example 23, cis-3-(6-((6-methoxy-2-methyl-1,2,3,4-tetrahydroisoquinolin-7-yl)amino)-1H-pyrazolo[3,4-d]pyrimidin-1-yl)cyclohexan-1-ol]
  pIC50: > 7.00

## COCCS(=O)(=O)NC[C@H]1C[C@H](n2ncc3cnc(Nc4cc5c(cc4OC)CCN(C)C5)nc32)C1 [Example 124, 2-methoxy-N-(((1r,3r)-3-(6-((6-methoxy-2-methyl-1,2,3,4-tetrahydroisoquinolin-7-yl)amino)-1H-pyrazolo[3,4-d]pyrimidin-1-yl)cyclobutyl)methyl)ethane-1-sulfonamide]
  pIC50: > 7.00

## COc1cc2c(cc1Nc1ncc3cnn(C[C@@H]4CCCN4S(C)(=O)=O)c3n1)CN(C)CC2 [Example 111, (S)-6-methoxy-2-methyl-N-(1-((1-(methylsulfonyl)228yrrolidine-2-yl)methyl)-1H-pyrazolo[3,4-d]pyrimidin-6-yl)-1,2,3,4-tetrahydroisoquinolin-7-amine]
  pIC50: > 7.00

## CN1CCc2ccc(Nc3ncc4cnn([C@@H]5CCOC5)c4n3)cc2C1 [Example 20, (R)-2-methyl-N-(1-(tetrahydrofuran-3-yl)-1H-pyrazolo[3,4-d]pyrimidin-6-yl)-1,2,3,4-tetrahydroisoquinolin-7-amine]
  pIC50: > 7.00

## COc1cc2c(cc1Nc1ncc3cnn([C@H]4C[C@@H](CNC(C)=O)C4)c3n1)CN(C)CC2 [Example 126, N-((cis-3-(6-((6-methoxy-2-methyl-1,2,3,4-tetrahydroisoquinolin-7-yl)amino)-1H-pyrazolo[3,4-d]pyrimidin-1-yl)cyclobutyl)methyl)acetamide]
  pIC50: 6.60 to 7.00

## COC(=O)NCCn1ncc2cnc(Nc3cc4c(cc3OC)CCN(C)C4)nc21 [Example 89, methyl N-[2-[6-[(6-methoxy-2-methyl-3,4-dihydro-1H-isoquinolin-7-yl)amino]pyrazolo[3,4-d]pyrimidin-1-yl]ethyl]carbamate]
  pIC50: 6.60 to 7.00

## COc1cc2c(cc1Nc1ncc3cnn(Cc4cc[nH]c(=O)c4)c3n1)CN(C)CC2 [Example 219, 4-[[6-[(6-methoxy-2-methyl-3,4-dihydro-1H-isoquinolin-7-yl)amino]pyrazolo[3,4-d]pyrimidin-1-yl]methyl]-1H-pyridin-2-one]
  pIC50: > 7.00

## COc1cc2c(cc1Nc1ncc3cnn([C@H]4CC[C@@H](O)CC4)c3n1)CN(C)CC2 [Example 39, (1s,4s)-4-(6-((6-methoxy-2-methyl-1,2,3,4-tetrahydroisoquinolin-7-yl)amino)-1H-pyrazolo[3,4-d]pyrimidin-1-yl)cyclohexan-1-ol]
  pIC50: > 7.00

## COc1cc2c(cc1Nc1ncc3cnn(C[C@H]4C[C@@H](NS(C)(=O)=O)C4)c3n1)CN(C)CC2 [Example 120, cis N-(3-((6-((6-methoxy-2-methyl-1,2,3,4-tetrahydroisoquinolin-7-yl)amino)-1H-pyrazolo[3,4-d]pyrimidin-1-yl)methyl)cyclobutyl)methanesulfonamide trifluoroacetate]
  pIC50: > 7.00

## COc1cc2c(cc1Nc1ncc3cnn(C[C@H]4CCCN4S(C)(=O)=O)c3n1)CN(C)CC2 [Example 118, (R)-6-methoxy-2-methyl-N-(1-((1-(methylsulfonyl)pyrrolidin-2-yl)methyl)-1H-pyrazolo[3,4-d]pyrimidin-6-yl)-1,2,3,4-tetrahydroisoquinolin-7-amine trifluoroacetate]
  pIC50: > 7.00

## COc1cc2c(cc1Nc1ncc3cnn(C4CCCN(C(C)=O)C4)c3n1)CN(C)CC2 (stereo not drawn) [Example 109, 1-(3-(6-((6-methoxy-2-methyl-1,2,3,4-tetrahydroisoquinolin-7-yl)amino)-1H-pyrazolo[3,4-d]pyrimidin-1-yl)piperidin-1-yl)ethan-1-one]
  pIC50: > 7.00

## COc1cc2c(cc1Nc1ncc3cnn([C@H]4CC[C@@H](C(N)=O)CC4)c3n1)CN(C)CC2 [Example 27, (1s,4s)-4-(6-((6-methoxy-2-methyl-1,2,3,4-tetrahydroisoquinolin-7-yl)amino)-1H-pyrazolo[3,4-d]pyrimidin-1-yl)cyclohexane-1-carboxamide]
  pIC50: > 7.00

## CN1CCc2ccc(Nc3ncc4cnn(CCS(C)(=O)=O)c4n3)cc2C1 [Example 150, 2-methyl-N-(1-(2-(methylsulfonyl)ethyl)-1H-pyrazolo[3,4-d]pyrimidin-6-yl)-1,2,3,4-tetrahydroisoquinolin-7-amine]
  pIC50: > 7.00

## COc1cc2c(cc1Nc1ncc3cnn(CC4CCCCO4)c3n1)CN(C)CC2 (racemic) [Example 201, (S)-6-methoxy-2-methyl-N-(1-((tetrahydro-2H-pyran-2-yl)methyl)-1H-pyrazolo[3,4-d]pyrimidin-6-yl)-1,2,3,4-tetrahydroisoquinolin-7-amine and (R)-6-methoxy-2-methyl-N-(1-((tetrahydro-2H-pyran-2-ylmethyl)-1H-pyrazolo[3,4-d]pyrimidin-6-yl)-1,2,3,4-tetrahydroisoquinolin-7-amine Hydrochloride, Racemic Mixture]
  pIC50: > 7.00

## CC(CO)n1ncc2cnc(Nc3ccc4c(c3)CN(C)CC4)nc21 (stereo not drawn) [Example 10, 2-[6-[(2-methyl-3,4-dihydro-1H-isoquinolin-7-yl)amino]pyrazolo[3,4-d]pyrimidin-1-yl]propan-1-ol trifluoroacetate]
  pIC50: > 7.00

## COc1cc2c(cc1Nc1ncc3cnn(C[C@@H]4CCCN4C(=O)CO)c3n1)CN(C)CC2 [Example 114, (S)-2-hydroxy-1-(2-((6-((6-methoxy-2-methyl-1,2,3,4-tetrahydroisoquinolin-7-yl)amino)-1H-pyrazolo[3,4-d]pyrimidin-1-yl)methyl)230yrrolidine-1-yl)ethan-1-one 2,2,2-trifluoroacetate]
  pIC50: > 7.00

## CCOC(=O)[C@@H]1CCC[C@H](n2ncc3cnc(Nc4cc5c(cc4OC)CCN(C)C5)nc32)C1 (relative stereo) [Example 21, ethyl cis-3-(6-((6-methoxy-2-methyl-1,2,3,4-tetrahydroisoquinolin-7-yl)amino)-1H-pyrazolo[3,4-d]pyrimidin-1-yl)cyclohexane-1-carboxylate]
  pIC50: > 7.00

## CN1CCc2ccc(Nc3ncc4cnn(C5COC5)c4n3)cc2C1 [Example 1, 2-methyl-N-(1-(oxetan-3-yl)-1H-pyrazolo[3,4-d]pyrimidin-6-yl)-1,2,3,4-tetrahydroisoquinolin-7-amine]
  pIC50: > 7.00

## COc1cc2c(cc1Nc1ncc3c(C)nn([C@H]4CC[C@@H](C(N)=O)CC4)c3n1)CN(C)CC2 [Example 51, (cis)-4-(6-((6-methoxy-2-methyl-1,2,3,4-tetrahydroisoquinolin-7-yl)amino)-3-methyl-1H-pyrazolo[3,4-d]pyrimidin-1-yl)cyclohexane-1-carboxamide]
  pIC50: > 7.00

## COc1cc2c(cc1Nc1ncc3c(C)nn([C@H]4CC[C@H](CO)CC4)c3n1)CN(C)CC2 [Example 68, trans-[4-[6-[(6-methoxy-2-methyl-3,4-dihydro-1H-isoquinolin-7-yl)amino]-3-methyl-pyrazolo[3,4-d]pyrimidin-1-yl]cyclohexyl]methanol]
  pIC50: > 7.00

## COc1cc2c(cc1Nc1ncc3cnn([C@H]4CC[C@H](CO)CC4)c3n1)CN(CCO)CC2 [Example 167, 2-[7-[[1-[4-(hydroxymethyl)cyclohexyl]pyrazolo[3,4-d]pyrimidin-6-yl]amino]-6-methoxy-3,4-dihydro-1H-isoquinolin-2-yl]ethanol]
  pIC50: > 7.00

## CCOC(=O)CCCn1ncc2cnc(Nc3ccc4c(c3)CN(C)CC4)nc21 [Example 8, Ethyl 4-(6-((2-methyl-1,2,3,4-tetrahydroisoquinolin-7-yl)amino)-1H-pyrazolo[3,4-d]pyrimidin-1-yl)butanoate]
  pIC50: > 7.00

## CN1CCc2c(cc(Nc3ncc4cnn([C@H]5CC[C@H](CO)CC5)c4n3)cc2C(F)(F)F)C1 [Example 57, ((1r,4r)-4-(6-((2-methyl-5-(trifluoromethyl)-1,2,3,4-tetrahydroisoquinolin-7-yl)amino)-1H-pyrazolo[3,4-d]pyrimidin-1-yl)cyclohexyl)methanol]
  pIC50: > 7.00

Reference: patent US11918582B2 (RAPT Therapeutics, Inc., priority 2021, dated 2024)
